Data: patent publication US9919058B2, “Polyketal particles including a CpG oligodeoxynucleotide for the treatment of lung cancer” (THE UNITED STATES OF AMERICA, as represented by the …, priority 2014, dated 2018)
Read-outs that look alike come from different tables or passages of the source.

How the values were obtained:
[1] = system: large established tumor; settings: 3M-052 co-delivered with CpG ODN into the tumor site; tumor size over 500 mm(3); cited from earlier work
[2] = system: Spleen cells from WT or TLR9 KO mice; assay: In vitro stimulation of spleen cells (CCK-8 proliferation; IL-6/IL-12 ELISA); format: cell-based
Protocol: FIGS. 2A-2C. In vitro activity of CpG-NP (aggregates provided microprticles “MP’). Spleen cells from WT or TLR9 KO mice were cultured with 1 μM of free or NP adsorbed CpG ODN or 1 μg/mL of R837 (TLR7 ligand). 2A) Cell proliferation after 72 hr. 2B, 2C) IL-12 and IL-6 production after 24 hr.
In Vitro Cell Proliferation Assay: Single spleen cell suspensions were prepared. 5×10^4 cells/well were cultured in 96-well flat bottomed microtiter plates in complete RPMI 1640 medium supplemented with 10% fetal calf serum, 100 U/mL penicillin, […], […], 1.0 mmol/L sodium pyruvate, NEAA, and 0.0035% 2-ME. The cells were stimulated free ODN, ODN-NP, or R837 (TLR7 agonist) for 72 hr. Cell proliferation was assessed using the CCK-8 assay as per manufacturer's recommendation (Dojindo molecular technologies, Inc. Rockville, Md.).
ELISA: Cytokine levels in BAL, serum, and culture supernatants were measured by ELISA as previously described (Klinman et al., PNAS 1996; 93:2879-2883). Briefly, paired IL-6 and IL-12-specific mAbs were purchased from BD Pharmingen. Ninety-six-well Immulon H2B plates (Thermo LabSystems, Beverly, Mass.) were coated with capture cytokine-specific Abs and then blocked with PBS/1% BSA. Samples were added and bound cytokine detected by the addition of biotin-labeled secondary Ab, followed by phosphatase-conjugated avidin and a phosphatase-specific colorimetric substrate. Standard curves were generated using recombinant cytokines purchased from R&D Systems (Minneapolis, Minn.).

[3] = system: Lewis lung carcinoma (LLC1) cells
Protocol: Treatment Protocols and Tumor Cell Implantation: C57BL/6, TLR9 KO and Rag1 KO mice were obtained from the National Cancer Institute (Frederick, Md.) and studied at 5-6 wk of age. […] On the day of inoculation, cultured cells were trypsinized, washed and suspended in 0.9% saline.
One week later, free ODN or ODN-NP were administered either systemically (i.p.) or locally (i.t.). Instillation was achieved via orotracheal intubation using a 20 gauge 1″ catheter (TERUMO, Somerset, N.J.) under anesthesia. Survival curves were generated from 4-6 mice per group and all results derived by combining data from 2-4 independent experiments. All animals were monitored 3×/wk and moribund mice euthanized as per Institutional Animal Care and Use Committee protocol.
Statistical Analysis: Statistical analyses were performed using MedCalc, version 13.0 (MedCalc Software, Mariakerke, Belgium). Differences in survival were determined using the log rank test of Kaplan-Meier. Differences between groups were assessed using a one-way ANOVA followed by Student-Newman-Keuls post-hoc test. […] All values are expressed as mean±SE.

[4] = mouse, in vivo
Protocol: Biodistribution of CpG ODN. LLC were implanted as described in FIG. 1. […] Tissue samples were stained to identify macrophages (red F4/80^+), DC (red CD205^+) or CpG (green) and analyzed by confocal microscopy.
Immunohistochemistry and Immunofluorescent Analysis: Tissue sections were deparaffinized with xylene and rehydrated with graded ethanol. Endogenous peroxidase activity was blocked by incubation with 0.3% H2O2 in methanol for 30 min followed by Protein Block (Dako, Carpinteria, Calif.). […] Isotype matched negative controls were included to insure specificity.
For immunohistochemistry, stained sections were incubated with HRP-conjugated anti-rat or rabbit IgG (simple stain mouse Max Po; Nichirei, Tokyo, Japan) plus 3-amino-9-ethyl carbazole (AEC) substrate for color development (Nichirei). The sections were counterstained with Mayer's hematoxylin (Dako) and images were obtained using an IX50 inverted microscope equipped with digital imaging system (Olympus, Center Valley, Pa.). […] Cell nuclei were visualized with DAPI (Vector). […] Fluorescent images were acquired with a laser-scanning confocal microscope (LSM 510; Zeiss, Thronwood, N.Y.), equipped with a 63x/1.4NA oil objective.

[5] = system: Lewis lung cancer; settings: CpG ODN in combination with chemotherapy; cited from earlier work
[6] = in vivo; cited from earlier work
[7] = system: Immune Cells; assay: BAL cellularity and IL-12 after i.t. delivery to normal mice; format: in vivo; settings: 50 μg i.t., BAL 2 days later
Protocol: FIGS. 4A-4B. Activity of CpG-NP (aggregates provided microprticles “MP’) in vivo. 50 μg of CpG ODN (free or adsorbed onto NP) was administered i.t. to normal mice. BAL was collected and analyzed for (4A) cellularity and (4B) IL-12 levels 2 days later.
Tissue Collection and Evaluation of Tumor Development: Bronchoalveolar lavage (BAL) fluid was obtained by tracheal cannulation of anesthetized mice. Cell differentials were performed on cytocentrifuged BAL preparations after fixation and staining with Diff-Quick (Dade Behring, Newark, Del.).
IL-12 levels in BAL and serum were determined by ELISA. Lungs were inflated and fixed by instilling 1 mL of 10% neutral-buffered formalin or periodate lysine paraformaldehyde (PLP) fixative (Wako Chemicals USA, Inc. Richmond, Va.) at 20 cm H2O. Fixed tissue was embedded in paraffin, sectioned, and stained with hematoxylin and eosin for histopathological assessment. Tumor area was evaluated in mid-line sections and quantified using Image J software ver.1.48 (National Institute of Health, Bethesda, Md.).
ELISA: Cytokine levels in BAL, serum, and culture supernatants were measured by ELISA as previously described (Klinman et al., PNAS 1996; 93:2879-2883). […] Samples were added and bound cytokine detected by the addition of biotin-labeled secondary Ab, followed by phosphatase-conjugated avidin and a phosphatase-specific colorimetric substrate. […]

[8] = system: advanced NSCLC; settings: cited from earlier work
[9] = system: Rat; settings: in vivo, po; cited from earlier work

CCCCCCCCCCCCCCCCCC(=O)NCCCCOn1c(CCCC)nc2c(N)nc3ccccc3c21 [3M-052, N-(4-{[4-amino-2-butyl-1H-imidazo[4,5-c]quinolin-1-yl]oxy}butyl) octadecanamide]
effect on established tumor [1]: eliminated the large established tumor

GCTAGACGTTAGCGT [CpG ODN]
response of cells from TLR9 KO mice ([2]; TLR9 KO spleen cells): failed to respond
IL-6 and IL-12 secretion ([2]; WT spleen cells, 1 μM, 24 hr): induced WT cells to secrete IL-6 and IL-12
cell proliferation ([2]; WT spleen cells, 1 μM, 3 days (72 hr)): proliferate over 3 days
relative effectiveness of free CpG vs CpG-NP ([2]; WT spleen cells, 24 hr vs 3 days of culture): more effective at the earlier time point
median survival time ([3]; 50 μg i.t. weekly for one month from day 7, C57BL/6, untreated 22 days): 38 days
HR (survival vs No Rx) ([3]; dose of ODN 10 μg): 0.33
long term survival ([3]; dose of ODN 10 μg weekly for one month): < 40%
long term survival ([3]; dose of ODN 50 μg weekly for one month): > 80%
toxicity ([3]; dose of ODN 100 μg): evidence of toxicity (pulmonary inflammation and weight loss)
HR (survival vs No Rx) ([3]; intra-tracheal (i.t.) delivery, 50 μg): 0.28
tumors on re-challenge of survivors with LLC ([3]; survivors of therapy re-challenged): no tumors arose
HR (survival vs No Rx) ([3]; systemic (i.p.) delivery): 0.55
effect on survival ([3]; systemic (i.p.) delivery): modest but statistically insignificant survival benefit
clearance from the lungs [4]: rapidly cleared from the lungs
localisation in lung [4]: detected throughout the mucosal surface of the bronchial tree
localisation/persistence in lung and tumor [4]: little of this material remained in the bronchi or could be detected in the tumor
effect on survival [5]: significantly prolonged survival
mean t1/2 [6]: ≈ 12 h
median tmax [6]: 2 h
pulmonary IL-12 levels [7]: significant increase in pulmonary IL-12 levels
rise in BAL cellularity vs saline ([7]; normal mice): ≈ 25%
objective response rate ([8]; patients who received CpG ODN, chemotherapy alone 19-23%): 28-30%
survival benefit in phase 3 trials ([8]; patients with NSCLC, phase 3): no survival benefit was observed

OCC1CCC(CO)CC1 (centres unmarked) [1,4-cyclohexanedimethanol]
LD50 [9]: 3,200 mg/kg

GCTAGAGCTTAGCGT [control ODN, reference compound]
effect on survival ([3]; i.t. delivery): no effect
